Assays:
SH-SY5Y = test: Antiproliferative activity against human SH-SY5Y cells after 48 hrs by MTS reduction assay; format: functional, cell-based
[1] = target: Cyclin-dependent kinase 7/ cyclin H (Homo sapiens, UniProt P50613); test: Inhibition of human recombinant CDK7/cyclin H expressed in baculovirus-infected insect cells
HEK293 = test: Antiproliferative activity against human HEK293 cells after 48 hrs by MTS reduction assay; format: cell-based; conditions: HEK293, 48 h
[2] = Inhibition of starfish oocytes CDK1/cyclin B; design: species or system Marthasterias glacialis; conditions: oocyte
[3] = target: Cyclin-dependent kinase 2 (Homo sapiens, UniProt P24941); test: Inhibition of human recombinant CDK2/cyclin A expressed in baculovirus-infected insect cells
[4] = target: Cyclin-dependent kinase 5/CDK5 activator 1 (Homo sapiens, UniProt Q00535)
Description: Inhibition of human recombinant CDK5/p25 expressed in Escherichia coli

CDK9/cyclin T1 = CDK9/cyclin T1 (Homo sapiens, UniProt P50750); test: Inhibition of human recombinant CDK9/cyclin T expressed in baculovirus-infected insect cells
Chain of CDK9/cyclin T1 (O60563 whole entry): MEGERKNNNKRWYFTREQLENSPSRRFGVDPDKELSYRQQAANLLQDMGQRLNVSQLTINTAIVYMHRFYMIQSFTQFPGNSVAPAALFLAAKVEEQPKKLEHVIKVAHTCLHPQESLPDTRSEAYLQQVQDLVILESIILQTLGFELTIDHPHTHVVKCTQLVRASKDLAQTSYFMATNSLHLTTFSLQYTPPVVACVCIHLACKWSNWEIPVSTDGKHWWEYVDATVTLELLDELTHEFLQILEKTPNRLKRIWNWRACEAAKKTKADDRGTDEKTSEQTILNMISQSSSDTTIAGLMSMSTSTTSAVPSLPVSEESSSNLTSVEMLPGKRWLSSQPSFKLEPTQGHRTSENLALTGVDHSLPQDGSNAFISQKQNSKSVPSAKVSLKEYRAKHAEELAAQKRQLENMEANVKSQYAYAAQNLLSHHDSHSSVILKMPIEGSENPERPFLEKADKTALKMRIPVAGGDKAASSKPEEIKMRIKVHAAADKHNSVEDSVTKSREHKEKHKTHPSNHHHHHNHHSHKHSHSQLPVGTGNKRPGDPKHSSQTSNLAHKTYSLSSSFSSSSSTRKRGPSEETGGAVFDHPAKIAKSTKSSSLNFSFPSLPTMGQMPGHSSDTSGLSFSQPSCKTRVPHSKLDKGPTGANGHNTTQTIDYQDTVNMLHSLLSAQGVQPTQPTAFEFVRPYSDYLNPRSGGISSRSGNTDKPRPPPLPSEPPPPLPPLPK
Chain of CDK9/cyclin T1 (P50750 whole entry): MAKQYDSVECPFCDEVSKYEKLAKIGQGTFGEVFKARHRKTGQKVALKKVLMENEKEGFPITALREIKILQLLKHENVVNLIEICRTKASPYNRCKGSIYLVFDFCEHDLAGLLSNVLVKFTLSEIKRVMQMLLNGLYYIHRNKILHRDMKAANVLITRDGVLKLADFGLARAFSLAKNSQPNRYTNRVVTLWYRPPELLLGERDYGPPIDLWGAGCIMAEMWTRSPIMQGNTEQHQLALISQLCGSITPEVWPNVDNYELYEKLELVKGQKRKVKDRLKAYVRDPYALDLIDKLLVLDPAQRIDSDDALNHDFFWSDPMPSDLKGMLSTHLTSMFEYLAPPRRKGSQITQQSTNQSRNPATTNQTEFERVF

Chain of Cyclin-dependent kinase 5/CDK5 activator 1 (Q00535 whole entry): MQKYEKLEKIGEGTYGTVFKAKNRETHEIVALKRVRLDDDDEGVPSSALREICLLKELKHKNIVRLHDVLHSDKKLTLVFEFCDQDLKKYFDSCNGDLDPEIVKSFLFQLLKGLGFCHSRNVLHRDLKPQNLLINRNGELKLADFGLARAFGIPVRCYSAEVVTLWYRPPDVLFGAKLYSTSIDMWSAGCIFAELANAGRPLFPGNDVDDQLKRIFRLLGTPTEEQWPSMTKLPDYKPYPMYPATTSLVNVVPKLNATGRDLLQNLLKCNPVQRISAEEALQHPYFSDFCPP
Chain of Cyclin-dependent kinase 5/CDK5 activator 1 (Q15078 whole entry, further chain): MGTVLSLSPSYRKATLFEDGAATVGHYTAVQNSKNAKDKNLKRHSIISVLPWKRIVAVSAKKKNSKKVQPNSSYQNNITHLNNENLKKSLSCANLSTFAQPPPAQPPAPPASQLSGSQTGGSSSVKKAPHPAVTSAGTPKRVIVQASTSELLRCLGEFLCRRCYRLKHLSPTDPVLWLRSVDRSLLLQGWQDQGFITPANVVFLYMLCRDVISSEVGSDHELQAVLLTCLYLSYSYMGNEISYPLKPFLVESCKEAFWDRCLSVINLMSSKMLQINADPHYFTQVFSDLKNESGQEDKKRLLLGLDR
Chain of Cyclin-dependent kinase 7/ cyclin H (P51946 whole entry): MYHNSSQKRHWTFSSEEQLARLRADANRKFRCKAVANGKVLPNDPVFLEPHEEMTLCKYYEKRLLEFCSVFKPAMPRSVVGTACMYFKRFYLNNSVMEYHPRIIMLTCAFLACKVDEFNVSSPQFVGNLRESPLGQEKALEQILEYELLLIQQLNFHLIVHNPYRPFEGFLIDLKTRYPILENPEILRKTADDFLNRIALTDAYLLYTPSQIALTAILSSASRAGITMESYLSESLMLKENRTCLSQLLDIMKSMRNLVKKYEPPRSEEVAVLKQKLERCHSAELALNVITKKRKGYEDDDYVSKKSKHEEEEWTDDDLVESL
Chain of Cyclin-dependent kinase 7/ cyclin H (P50613 whole entry): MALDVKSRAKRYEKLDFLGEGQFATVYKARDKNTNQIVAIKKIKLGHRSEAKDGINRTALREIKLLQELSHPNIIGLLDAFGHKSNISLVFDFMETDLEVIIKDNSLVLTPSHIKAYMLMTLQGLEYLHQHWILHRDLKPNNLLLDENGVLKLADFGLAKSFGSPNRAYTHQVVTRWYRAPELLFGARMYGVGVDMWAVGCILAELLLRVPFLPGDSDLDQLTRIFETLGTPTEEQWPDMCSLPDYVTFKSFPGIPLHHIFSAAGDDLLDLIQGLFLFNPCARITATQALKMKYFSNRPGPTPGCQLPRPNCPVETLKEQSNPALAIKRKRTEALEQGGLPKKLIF

Row | SMILES | IC50 (SH-SY5Y) | IC50 [1] | IC50 (HEK293) | IC50 [2] | IC50 [3] | IC50 [4] | IC50 (CDK9/cyclin T1)
1 | CC[C@H](CO)Nc1nc(NCc2ccccc2)c2ncc(C(C)C)n2n1 | 15400 nM | 600 nM | 26800 nM | 400 nM | 220 nM | 320 nM | 200 nM
2 | CC[C@@H](CO)Nc1nc(NCc2ccccc2)n2ncc(C(C)C)c2n1 | 2000 nM | – | 7200 nM | – | – | 130 nM | –
